The values below come from article PMC2771923 (Journal of medicinal chemistry, 2008).

One test has as its system PR dimers. Particulars: fluorescent-tagged PR monomers; cited from earlier work.
Test [1] concerns the target PRWT (optimized wild-type HIV-1 PR) (Human immunodeficiency virus type 1 group M subtype B, UniProt P04585, C555A/C583A/L521I/L551I/Q495K).
Test [2] deals with PRV32I (V32I mutant HIV-1 PR) (Human immunodeficiency virus type 1 group M subtype B, UniProt P04585, C555A/C583A/L521I/L551I/Q495K/V520I).
Another test deals with HIV-1 PR (Human immunodeficiency virus type 1 group M subtype B, UniProt P04585). Particulars: cited from earlier work.

Turning to `CC(C)CN(C[C@@H](O)[C@H](Cc1ccccc1)NC(=O)O[C@H]1CCOC1)S(=O)(=O)c1ccc(N)cc1` [APV, amprenavir], the “inhibition of the formation of PR dimers” value in the test with PR dimers was “absence of APV inhibition”. Besides, in test [1], the “γ (factor of γKi)” value is given as 0.22 and the “δ (factor of δKi)” value is recorded as 0.23. Moreover, the “Ki^uncomp (uncompetitive inhibition constant)” value in test [1] (from intercept replots of Lineweaver-Burk plots) is 28 nM. Also, the “γKi smaller compared to Ki^uncomp” value in test [1] (ratio Ki^uncomp / γKi) is on record as 4.5 fold. For the same compound, in test [2], the “γ (factor of γKi)” value was 0.45 and the “δ (factor of δKi)” value is 0.28.

Turning to `CC(C)CN(C[C@@H](O)[C@H](Cc1ccccc1)NC(=O)O[C@H]1CO[C@H]2OCC[C@H]21)S(=O)(=O)c1ccc(N)cc1` [DRV, darunavir], in the test on PR dimers, the “inhibition of the formation of PR dimers” value is recorded as “inhibited the formation of PR dimers”. Also, at HIV-1 PR, the “affinity for HIV-1 PR” value was “exceptionally high affinity” and the dissociation rate entry is recorded as “greatly decreased dissociation rate”. Also, in test [1], the “γ (factor of γKi)” value worked out at 1.2 and the “δ (factor of δKi)” value turned out to be 0.5. Moreover, in test [2], the “γ (factor of γKi)” value was found to be 1.7 and the “δ (factor of δKi)” value is reported as 0.3.

On to `CC(C)(C)NC(=O)[C@@H]1C[C@@H]2CCCC[C@@H]2CN1C[C@@H](O)[C@H](Cc1ccccc1)NC(=O)[C@H](CC(N)=O)NC(=O)c1ccc2ccccc2n1` [SQV, saquinavir], for which the type of inhibition result in test [1] and in test [2] was “purely competitive inhibition” each time.
